From ChEMBL document CHEMBL3137667, “[Drug-induced liver injury; fourteenth updated edition of the bibliographic database of liver injuries and related drugs]” (Gastroenterol Clin Biol, 2004)

Assays:
[1] = human
[2] = human, serum
[3] = human; remark: listed apart in the source
[4] = human, serum, 4383 h
[5] = Highest frequency of moderate liver toxicity observed during clinical trials, expressed as a percentage. [column '% BIOL' in source]; details: human
[6] = human; remark: listed apart in the source
[7] = Times to onset, minimal and maximal, observed in the indexed observations. [column 'DELAI' in source]; details: human
[8] = human; remark: listed apart in the source
[9] = human; remark: listed apart in the source
[10] = human; remark: listed apart in the source
[11] = Highest frequency of acute liver toxicity observed during clinical trials, expressed as a percentage. [column '% AIGUE' in source]; details: human
[12] = human, serum; remark: listed apart in the source
[13] = human; remark: listed apart in the source
[14] = human; remark: listed apart in the source
[15] = human; remark: listed apart in the source
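Wherever Hepatotoxicity (association with vascular disease) is given: count of indexed literature references reporting vascular liver injury in humans, e.g. peliosis hepatitis, hepatic veno-occlusive disease or Budd-Chiari syndrome.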
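Wherever Hepatotoxicity (benign tumour) is given: value is a count of indexed literature references citing a benign tumour confirmed by histopathology.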
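Wherever Hepatotoxicity (choleostasis) is given: human cholestatic liver injury, shown by histopathology or by peak ALT or AST elevation over alkaline phosphatase ratio below 2, value counts indexed literature reports.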
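Wherever Hepatotoxicity (chronic liver disease) is given: chronic liver injury confirmed by histopathology or persistently raised serum aminotransferase activity beyond 6 months, value given as the count of indexed literature references.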
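Wherever Hepatotoxicity (cirrhosis) is given: value is a count of indexed literature references reporting cirrhosis confirmed by histopathology.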
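Wherever Hepatotoxicity (cytolytic) is given: human cytolytic liver injury, shown by histopathology or by a ratio above 5 of peak ALT or AST elevation to alkaline phosphatase elevation, value counts indexed references.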
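Wherever Hepatotoxicity (granulomatous hepatitis) is given: value is a count of indexed literature references reporting granulomatous liver disease confirmed by histopathology.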
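Wherever Hepatotoxicity (malignant tumour) is given: malignant tumour confirmed by histopathology, value gives the count of indexed literature references reporting it.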
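Wherever Hepatotoxicity (severe hepatitis) is given: human clinical data: severe hepatitis, meaning potentially life-threatening liver failure or clinically observed cases, the value counts how many indexed literature references report it.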
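Wherever Hepatotoxicity (steatosis) is given: steatosis confirmed by histopathology, value is the count of indexed references.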

Row | Structure (SMILES) | Hepatotoxicity (choleostasis) [1] | Hepatotoxicity (moderate) [2] | Hepatotoxicity (granulomatous hepatitis) [3] | Hepatotoxicity (chronic liver disease) [4] | Hepatotoxicity (moderate) [5] | Hepatotoxicity (malignant tumour) [6] | Hepatotoxicity (time to onset) [7] | Hepatotoxicity (severe hepatitis) [8] | Hepatotoxicity (cytolytic) [9] | Hepatotoxicity (association with vascular disease) [10] | Hepatotoxicity (acute) [11] | Hepatotoxicity (acute) [12] | Hepatotoxicity (steatosis) [13] | Hepatotoxicity (cirrhosis) [14] | Hepatotoxicity (benign tumour) [15] | Hepatotoxicity (moderate) ([5]; Liver) | Hepatotoxicity (severe hepatitis) ([8]; Liver) | Hepatotoxicity (acute) ([11]; Liver)
1 | CC(=O)[C@H]1CC[C@H]2[C@@H]3CC[C@@H]4C[C@H](O)CC[C@]4(C)[C@H]3CC[C@]12C [ELTANOLONE] | 0 | 2 | 0 | 0 | 12.6% | 0 | 1 days | 0 | 0 | 0 | 0% | 0 | 0 | 0 | 0 | – | – | –
2 | CCn1cc(C(=O)O)c(=O)c2cc(F)c(N3CCNCC3)nc21 [ENOXACIN] | 1 | 6 | 0 | 0 | 3.3% | 0 | 9 days | 0 | 0 | 0 | 0% | 1 | 0 | 0 | 0 | – | – | –
3 | COc1cc2oc(=O)c(C)c(C)c2cc1OCCCN1CCN(c2ccccc2OC)CC1 [ENSACULIN] | 0 | 1 | 0 | 0 | 8.3% | 0 | 2 weeks | 0 | 0 | 0 | 0% | 0 | 0 | 0 | 0 | – | – | –
4 | CCN(CC)C(=O)/C(C#N)=C/c1cc(O)c(O)c([N+](=O)[O-])c1 [ENTACAPONE] | 2 | 1 | 0 | 0 | 0% | 0 | 2 weeks - 6 weeks | 0 | 0 | 0 | 0% | 2 | 0 | 0 | 0 | – | – | –
5 | CCC1(C)CC(=O)NC1=O (stereo not given) [ETHOSUXIMIDE] | 0 | 2 | 0 | 0 | 0% | 0 | 1 month | 0 | 0 | 0 | 0% | 0 | 0 | 0 | 0 | – | – | –
6 | CCNC1=Nc2ccc(Cl)cc2C(C)(c2ccccc2)O1 (stereo not given) [ETIFOXINE] | 0 | 0 | 0 | 0 | 0% | 0 | 11 days | 0 | 1 | 0 | 0% | 1 | 0 | 0 | 0 | – | – | –
7 | CCOC(=O)c1cncn1[C@H](C)c1ccccc1 [ETOMIDATE] | 0 | 1 | 0 | 0 | – | 0 | 3 days - 5 days | – | 0 | 0 | – | 0 | 0 | 0 | 0 | 5% | 0 | 0%
8 | NC(=O)OCC(COC(N)=O)c1ccccc1 [FELBAMATE] | 0 | 4 | 0 | 0 | 7.1% | 0 | 13 days - 6 months | 3 | 2 | 0 | 0% | 4 | 0 | 0 | 0 | – | – | –
9 | COc1ccc(OC[C@H]2CN(C)CC[C@@H]2c2ccccc2)cc1 [FEMOXETINE] | 0 | 0 | 0 | 0 | 0% | 0 | 5 months | 1 | 1 | 0 | 0% | 1 | 0 | 0 | 0 | – | – | –
10 | CC1=C(/C=C/C(C)=C/C=C/C(C)=C/C(=O)Nc2ccc(O)cc2)C(C)(C)CCC1 [FENRETINIDE] | 0 | 3 | 0 | 0 | 12.8% | 0 | 1 week | 0 | 0 | 0 | 0% | 0 | 0 | 0 | 0 | – | – | –
11 | O=C(O)Cc1sc(-c2ccccc2)nc1-c1ccc(Cl)cc1 [FENTIAZAC] | 0 | 3 | 0 | 0 | 35% | 0 | 4 months - 5 months | 0 | 1 | 0 | 6.1% | 2 | 0 | 0 | 0 | – | – | –
12 | CC(C)=CCC1C(=O)N(c2ccccc2)N(c2ccccc2)C1=O [FEPRAZONE] | 2 | 1 | 1 | 0 | 0% | 0 | 2 weeks - 1 month | 0 | 2 | 0 | 0% | 2 | 0 | 0 | 0 | – | – | –
13 | O=C(COc1ccc(Cl)cc1)N1CCN(Cc2ccc3c(c2)OCO3)CC1 [FIPEXIDE] | 0 | 0 | 0 | 0 | 0% | 0 | 15 days - 3 months | 1 | 3 | 0 | 0% | 4 | 0 | 0 | 0 | – | – | –
14 | Cc1c(-c2ccccc2)oc2c(C(=O)OCCN3CCCCC3)cccc2c1=O [FLAVOXATE] | 0 | 0 | 0 | 0 | 0% | 0 | 2.5 months | 0 | 1 | 0 | 0% | 1 | 0 | 0 | 0 | – | – | –
15 | O=C(NCCN1CCN(c2cccc3c2OC[C@H](CO)O3)CC1)c1ccc(F)cc1 [FLESINOXAN] | 0 | 1 | 0 | 0 | 12.5% | 0 | 6 weeks | 0 | 0 | 0 | 0% | 0 | 0 | 0 | 0 | – | – | –
